From patent US20240082345A1, “PEPTIDE COMPOSITION FOR PREVENTION OR TREATMENT OF ALZHEIMER'S DISEASE” (priority 2020, published 2024)
Non-standard residues stand in square brackets, D forms with d. Residues, ends and D or L forms follow the SMILES beside them.

What was measured:
5XFAD mice [1] = test: Cognitive function experiment (spontaneous alternation, total arm entry) in 5XFAD mice; assay type: in vivo, mouse; conditions: 5.5-month-old 5XFAD mice, 2 mg/kg i.p. every other day for 4 weeks
Experimental: (§1) Then, cognitive function experiments were performed on each mouse, and then the mouse brain was fixed by cardiac perfusion fixation. Thereafter, the removed mouse brain was secondarily fixed in a 4% PFA solution for 20 hours, and then immersed in a 30% sucrose solution. Subsequently, the mouse brains were frozen and sliced into a thickness of 30 μm.
The cognitive function experiment is a novel experiment based on the instinctive behavior of rodents with the will to explore new environments, and is an experiment to evaluate the spatial perception ability of mice to choose a path different from the one which mice chose immediately before in a maze, and scores are given by dividing spontaneous alternation (the ratio of choosing a different path from the path chosen immediately before) by the total number of passages passed (total arm entry). The total arm entry during the experiment becomes an index to evaluate whether all groups have similar motility and whether the experiment is performed normally, apart from spatial perception ability.

[2] = system: LPS-treated BV-2 cells (microglial cell line); test: LPS-mediated cytokine production in BV-2 cells (qRT-PCR); assay type: cell-based; conditions: 20 ng/ml peptide + 2 ng/ml LPS co-treatment, 6 hours, vs LPS-treated cells (FIG. 3)
Experimental: Microglial cell line BV-2 cells were co-treated with 20 ng/ml of peptide (DD-5052) according to the invention and 2 ng/ml of LPS and cultured for 6 hours. Subsequently, the mRNA expression levels of proinflammatory cytokines IL-1(3 and TNF-α were measured using quantitative real-time polymerase chain reaction (PCR).
Specifically, total RNA was extracted from BV-2 cells using an RNA purification kit (Gene All, Seoul, Korea) according to the manufacturer's protocol. cDNA was synthesized using the Revert Aid First Strand cDNA Synthesis Kit (Thermo Scientific, Waltham, MA, USA) and qRT-PCR analysis was performed using the SYBR Green PCR Master Mix (Thermo Scientific, Waltham, MA, USA). The gene-specific primer sequences for IL-1(3 and TNF-α are shown in the following Table 4, and the mRNA levels of IL-1(3 and TNF-α were calculated relative to the control sample amount.

[3] = Artificial membrane permeation test simulating the blood-brain barrier (PAMPA-096), LC-MS / ESI-FT-ICR-MS; assay type: in vitro ADME; conditions: for MS peak intensity, Before / LogPe: 100 μg/ml peptide; for LogPe: 18 hr, room temperature, PBS; for MS peak intensity, Acceptor / MS peak intensity, Donor: after 18 hr
Experimental: In order to confirm whether the peptide DD-S052 of the present invention passes through the blood-brain barrier (BBB), an artificial membrane permeation test simulating the blood-brain barrier was performed using a parallel artificial membrane permeability assay kit (PAMPA-096; BioAssay Systems).
Analysis conditions are shown in the following Table 5, and analysis was performed by liquid chromatography-mass spectrometry (LC-MS).
Quantitative analysis was performed using electrospray ionization coupled to Fourier transform ion cyclotron resonance mass spectrometry (ESI-FT-ICR-MS), and the analysis conditions are shown in the following Table 6.
The intensity value of a peak corresponding to the test material was used according to the Log Pe function described in an existing document (Evaluation of the reproducibility of Parallel Artificial Membrane Permeation Assays PAMPA, Sigma Aldrich), and the value calculated by the Log Pe function was used to predict the degree of permeation by referencing an existing document (Brian. J et al. Predicting a Drug's Membrane Permeability: A Computational Model Validated With in Vitro Permeability Assay Data. J Phys Chem B. 2017 May 25;121(20):5228-5237).

tau K18 = target: T1, tau K18 (Homo sapiens, UniProt P10636); test: Thioflavin T (ThT) assay of tau aggregation; assay type: biochemical; conditions: 0.5 mg/mL tau K18, 0.1 mg/mL heparin, DTT, PBS pH 7.4, 21 hours incubation; 10-1000 μg/mL (FIG. 7)
T1 construct: 0.5 mg/mL tau K18, 0.1 mg/mL heparin
T1 sequence (P10636 561-685 limits assumed): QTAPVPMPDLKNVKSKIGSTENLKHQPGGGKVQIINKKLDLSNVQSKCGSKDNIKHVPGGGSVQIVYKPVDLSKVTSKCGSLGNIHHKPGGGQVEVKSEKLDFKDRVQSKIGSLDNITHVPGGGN
Experimental: Thioflavin T (ThT) assay was performed to investigate the effect of DD-S052 and PEGylated DD-S052 on tau aggregation. ThT is known to bind to (3-sheet-rich protein aggregates to produce fluorescence. Synthetic tau K18 was dissolved in PBS (pH 7.4) in order to induce tau aggregation. The polymerization of tau proteins was induced by preparing a solution including PBS (pH 7.4), 0.5 mg/mL tau K18, 0.1 mg/mL heparin and 100 ρ, M DTT. DD-5052 at various concentrations (10, 20, 40, 100, and 1000 μg/mL), a 100 ρ, M methylene blue (MB) solution (positive control), and PEGylated DD-5052 were incubated together with an aggregation mixture for 21 hours. After incubation, a ThT solution (15 ρ, M in a 50 mM glycine buffer, pH 8.9) was added to a 96-well plate containing the sample and the aggregation mixture, and the resulting mixture was incubated for 3 hours. The fluorescence intensity of ThT was measured using a SpectraMax iD3 Multi-Mode Microplate Reader (Molecular Devices, San Jose, CA, USA) at excitation and emission wavelengths of 440 and 484 nm and quantified.

5XFAD mice [4] = test: Alzheimer's dementia-related pathology in 5XFAD mice, immunofluorescence staining (4G8, Iba-1, NeuN); assay type: in vivo, mouse
Experimental: as §1
The effects of DD-S052 on beta-amyloid accumulation, microgliosis, and neuronal loss were confirmed using an immunofluorescence staining method.
Specifically, in the case of immunofluorescence labeling, 4 to 5 coronal sections were obtained at subventricular zone (1.18 and 0.02 mm from bregma) and hippocampal formation (−1.58 and −3.80 mm from bregma) levels based on Paxinos and Franklin's “The Mouse Brain in Stereotaxic Coordinates.” Brain tissue was washed with PBS using the free-floating method in a Titramax 101 orbital shaker (Heidolph, Schwabach, Germany) and sections were incubated with PBS including 0.3% Triton X-100, 0.5 mg/mL bovine serum albumin (BSA) and primary antibodies as follows at 4° C. overnight: mouse anti-4G8 antibody (1:2,000; Cat. #800701, BioLegend, USA), mouse anti-NeuN antibody (1:100; Cat. #MAB377, Merck KGaA, Darmstadt, Germany), and goat anti-Iba-1 antibody (1:500; Cat. #ab5076, Abcam, Cambridge, UK).
Before being incubated with the anti-4G8 antibody, brain sections were incubated with 70% formic acid for antigen retrieval for 20 minutes, washed three times with PBS for 5 minutes each, and then incubated with a secondary antibody at room temperature for 50 minutes, and fluorescence signals were observed. As the secondary antibodies, the following antibodies were used: donkey Alexa 488-conjugated anti-mouse IgG (1:200; Cat. #A21202, Thermo Fisher Scientific Inc.), donkey Alexa 488-conjugated anti-goat IgG (1:200; Cat. #A11055, Thermo Fisher Scientific Inc.), and donkey Alexa 594-conjugated anti-rat IgG (1:200; Cat. #A21209, Thermo Fisher Scientific Inc.). All antibodies were diluted with PBS including 0.3% Triton X-100.

5XFAD mice [5] = test: LPS-induced neuroinflammation in brains of 5XFAD Alzheimer's dementia mice, Iba-1 immunohistochemical staining; assay type: in vivo, mouse; conditions: 3-month-old 5XFAD mice, single dose 10 mg/kg + LPS 3 mg/kg, 48 hours, vs LPS+vehicle (FIG. 5B)
Experimental: Since LPS causes different degrees of inflammatory response depending on the strain of animals to be administered, LPS origin and the like, the animals were co-administered a single dose of 3 mg/kg of LPS and 10 mg/kg of DD-5052, and then sacrificed 48 hours later, 5XFAD mice were treated with 3 mg/kg of LPS by referencing a document which confirms the mortality rate by treating 5XFAD mice with 3 mg/kg of LPS (Barton, S. M.; Janve, V. A.; McClure, R.; Anderson, A.; Matsubara, J. A.; Gore, J. C.; Pham, W., Lipopolysaccharide Induced Opening of the Blood Brain Barrier on Aging 5XFAD Mouse Model. J Alzheimers Dis 2019, 67, (2), 503-513.) and a document which confirms that microgliosis reaches its maximum value from day 2 after the administration of LPS (Kondo, S.; Kohsaka, S.; Okabe, S., Long-term changes of spine dynamics and microglia after transient peripheral immune response triggered by LPS in vivo. […] 48 hours after administration of LPS and DD-5052, mouse brains were removed by cardiac perfusion fixation (4% PFA). Thereafter, the removed mouse brain was secondarily fixed in 4% PFA for 20 hours, and then immersed in a 30% sucrose solution. Subsequently, the mouse brains were frozen and sliced into a thickness of 30

wild-type mice = test: LPS-induced neuroinflammation (microgliosis) in brains of wild-type mice, Iba-1 immunohistochemical staining; assay type: in vivo, mouse
Experimental: Sections were incubated in 1% H2O2 for 15 minutes, and then put into a solution in which a mouse […] was diluted 1:400, and incubated at 4° C. overnight. After incubation with a biotinylated secondary antibody (diluted 1:200, Vector Laboratories, Inc., Burlingame, CA, USA) at room temperature for 1 hour, the sections were incubated with an avidin-biotin-peroxidase complex (diluted 1:100, vector) for 1 hour. Thereafter, 0.02% 3,3′-diaminobenzidine and 0.01% H2O2 were reacted for about 3 minutes. After each incubation stage, the sections were washed three times with PBS. Finally, the sections were mounted on gelatin-coated slides, and dehydrated while increasing an alcohol concentration and cleared in xylene.
Experiments were designed as illustrated in FIG. 4A to confirm microglia in the brains of wild-type mice, and immunohistochemical staining was performed using a goat-anti Iba-1 antibody (Ab5076,1:500) against Iba-1 which is a marker for microglia. Three-month-old wild-type mice were intraperitoneally injected (i.p.) with LPS (30 mg/kg/day)+vehicle (Hartmann dex) or DD-S052 (30 mg/kg/day)+LPS (30 mg/kg/day), and sacrificed 6 hours after the last injection of LPS. In this case, LPS and DD-S052 were loaded in separate syringes and injected separately into the right and left abdomen, respectively, and LPS was administered, and then DD-S052 was administered approximately 1 minute later. The half-life of LPS in mouse blood was approximately 2 to 4 minutes. 6 hours after administration of LPS and DD-S052, mouse brains were removed by cardiac perfusion fixation (4% PFA). Thereafter, the removed mouse brain was secondarily fixed in 4% PFA for 20 hours, and then immersed in a 30% sucrose solution. Subsequently, the mouse brains were frozen and sliced into a thickness of 30 μm.
Thereafter, immunohistochemical staining for Iba-1 was performed by the method described in Example 1-2 in order to confirm microglia in the mouse hippocampus, and the results are shown in FIG. 4B.
Microglia were confirmed in the substantia nigra pars compacta (SNc) by performing immunohistochemical staining for Iba-1. Wild-type mice were treated with LPS and DD-5052 in the same manner as in Example 5-1.

CC(C)C[C@@H](NC(=O)[C@H](N)CCCCN)C(=O)N[C@H](CCCNC(=N)N)C(=O)N[C@@H](C(=O)N[C@H](CCCCN)C(=O)N[C@H](CC(C)C)C(=O)N[C@H](CCCNC(=N)N)C(=O)N[C@H](CCCNC(=N)N)C(=O)N[C@H](Cc1ccc(O)cc1)C(=O)N[C@H](CC(C)C)C(=O)N[C@H](CCCNC(=N)N)C(N)=O)C(C)C [DD-S052, KLRVKLRRYLR-NH2 (AcOH)] (H-[dK][dL][dR][dV][dK][dL][dR][dR][dY][dL][dR]-NH2; N-terminus assumed)
total arm entry (5XFAD mice [1]; 8-minute session, vs vehicle-treated 5XFAD, no significance between groups): increased | spontaneous alternation (5XFAD mice [1]; vs vehicle-treated 5XFAD (FIG. 6B)): increased | mRNA expression of IL-1(3 induced by LPS) [2]: suppressed | mRNA expression of TNF-α induced by LPS [2]: suppressed | MS peak intensity, Before ([3]; peak at 375 m/z): 1829478400 | LogPe ([3]; peak at 375 m/z): −5.405 | MS peak intensity, Acceptor ([3]; peak at 375 m/z): 717305173 | MS peak intensity, Donor ([3]; peak at 375 m/z): 909677952 | MS peak intensity, Before ([3]; peak at 512 m/z): 1667509760 | LogPe ([3]; peak at 512 m/z): −5.362 | MS peak intensity, Acceptor ([3]; peak at 512 m/z): 717488192 | MS peak intensity, Donor ([3]; peak at 512 m/z): 867968256 | fluorescence intensity of thioflavin T (ThT) (tau K18 aggregation) (tau K18): reduced | number of NeuN(+) cells (neuronal loss) (5XFAD mice [4]; 2 mg/kg i.p. every other day for 4 weeks): increased | 4G8(+) region (beta-amyloid accumulation) (5XFAD mice [4]; 2 mg/kg i.p. every other day for 4 weeks (FIG. 6C)): reduced | number of Iba-1(+) cells (microgliosis) (5XFAD mice [4]; 2 mg/kg i.p. every other day for 4 weeks (FIG. 6D)): reduced | Iba-1(+) microglia in cerebral cortex and hippocampus (5XFAD mice [5]): decreased | microglial morphology in hippocampus (wild-type mice; 3-month-old wild-type mice, 30 mg/kg/day i.p. + LPS 30 mg/kg/day i.p., 6 hours after last LPS (FIG. 4B)): tendency to change from an amoeboid shape to a ramified shape | number of Iba-1-positive cells in hippocampus (wild-type mice; 3-month-old wild-type mice, 30 mg/kg/day i.p. + LPS 30 mg/kg/day, vs LPS+vehicle (Hartmann dex), p<0.001 (FIG. 4C)): remarkably decreased | microglial morphology in substantia nigra pars compacta (SNc) (wild-type mice; wild-type mice, 30 mg/kg/day i.p. + LPS 30 mg/kg/day (FIG. 4D)): tendency to change from an amoeboid shape to a ramified shape | Iba-1(+) microglia in the SNc (wild-type mice; wild-type mice, 30 mg/kg/day i.p. + LPS 30 mg/kg/day, vs LPS+vehicle (FIG. 4D)): tended to decrease

EG-KLRVKLRRYLR-NH2 (AcOH) (not fully specified; N-terminal PEG, C-terminal amide, acetate salt; DD-S052P; BINDING (11) amine group (NH2) is added to C-terminus of polypeptide.; SITE (9) trifluoroacetic acid (TFA) at a terminus of the 9th amino acid from the N terminus of a peptide is substituted with an acetate salt.; SITE (1) peptide N-terminus PEGylation)
fluorescence intensity of thioflavin T (ThT) (tau K18 aggregation) (tau K18): reduced
